What all share (assay type): functional
For assay [1], the system named is Cricetinae gen. sp. As to the kind of experiment: Compound was tested for cholesterol reduction in liver in the cholesterol-fed hamster model after oral administration.
The test system of assay [2] is Cricetinae gen. sp. The assay can be described thus: Compound was tested for % inhibition of cholesterol in the cholesterol-fed hamster model after oral administration at a dose of 3 mg/kg/day.
In assay [3] the test system is Cricetinae gen. sp. The assay can be described thus: Compound was tested for % inhibition of cholesterol in the cholesterol-fed hamster model after oral administration at a dose of 10 mg/kg/day.
Assay [4] has as its system Cricetinae gen. sp. As to the kind of experiment: Compound was tested for % inhibition of cholesterol in the cholesterol-fed hamster model after oral administration at a dose of 25 mg/kg/day.
The subject of assay [5] is Cricetinae gen. sp. The assay can be described thus: Compound was tested for % inhibition of cholesterol in the cholesterol-fed hamster model after oral administration at a dose of 100 mg/kg/day.
Assay [6] has as its system Cricetinae gen. sp. As to the kind of experiment: Compound was tested for cholesterol inhibition in the cholesterol-fed hamster model after oral administration.

As usually defined, the ED50 is the midpoint of the dose-response relation. A high value points to a need for a large dose. For `COc1ccc([C@@H]2[C@@H](CCCc3ccccc3)C(=O)N2c2ccccc2)cc1`, the ED50 in the assay with Cricetinae gen. sp. [1] turned out to be 0.54 mg/kg/day.

Regarding `COc1ccc([C@@H]2[C@H]([C@@H](O)CCc3ccccc3)C(=O)N2c2ccccc2)cc1`, the Reduction with Cricetinae gen. sp. [2] turned out to be 0%.

Consider `COc1ccc([C@H]2[C@@H]([C@H](O)CCc3ccccc3)C(=O)N2c2ccccc2)cc1`, for which the Reduction in the assay on Cricetinae gen. sp. [3] amounted to 0%.

In turn, `COc1ccc([C@H]2[C@H](CCCc3ccccc3)C(=O)N2c2ccccc2)cc1` came in with a Reduction in the assay on Cricetinae gen. sp. [4] of 0%.

In the assay on Cricetinae gen. sp. [3], `COc1ccc([C@H]2[C@@H]([C@@H](O)CCc3ccccc3)C(=O)N2c2ccccc2)cc1` yielded a Reduction of 22%.

Consider `COc1ccc([C@H]2[C@H]([C@H](O)CCc3ccccc3)C(=O)N2c2ccccc2)cc1`, for which the Reduction with Cricetinae gen. sp. [3] is given as 38%.

As to `COc1ccc([C@@H]2[C@@H]([C@@H](O)CCc3ccccc3)C(=O)N2c2ccccc2)cc1`, the 50% effect level with Cricetinae gen. sp. [1] (ED50) was put at a dose of 8.6 mg/kg/day.

Molecule `COc1ccc([C@@H]2[C@@H]([C@H](O)CCc3ccccc3)C(=O)N2c2ccccc2)cc1` gave an ED50 in the assay on Cricetinae gen. sp. [1] of 1.2 mg/kg/day.

In the assay with Cricetinae gen. sp. [1], `COc1ccc([C@@H]2[C@H]([C@H](O)CCc3ccccc3)C(=O)N2c2ccccc2)cc1` yielded an ED50 of 0.4 mg/kg/day.

In the assay with Cricetinae gen. sp. [3], `COc1ccc([C@H]2[C@H]([C@@H](O)CCc3ccccc3)C(=O)N2c2ccccc2)cc1` yielded a Reduction of 0%.

Regarding `COc1ccc([C@@H]2[C@H](CCCc3ccccc3)C(=O)N2c2ccccc2)cc1`, the 50% effect level with Cricetinae gen. sp. [1] (ED50) was put at a dose of 4 mg/kg/day.

As to `COc1ccc([C@H]2[C@@H](CCCc3ccccc3)C(=O)N2c2ccccc2)cc1`, the Reduction in the assay on Cricetinae gen. sp. [5] is listed as 0%.

The molecule `COc1ccc(C2N(c3ccc(OC)cc3)C(=O)[C@]23CC[C@H](c2ccccc2)CC3)cc1` (stereo partly drawn) yielded a median effective dose (ED50) in the assay with Cricetinae gen. sp. [6] of 3 mg/kg.

Values taken from ChEMBL document CHEMBL1129144, “Stereoselective synthesis and biological activity of cis azetidinones as cholesterol absorption inhibitors” (1996).
